The text below walks through data of ChEMBL document CHEMBL1158034, “Synthesis and cytotoxicity of racemic isodeoxypodophyllotoxin analogues with isoprene-derived side chains” (J Nat Prod, 2006).

Format in all cases: functional, cell-based
Assay [1] relates to A549. Kind of assay: Cytotoxicity against human A549 cells after 72 hrs by MTT assay. The note with it: A549, 72 h. A general note: Tetrazolium dyes change colour on reduction, which living cells bring about.
In assay [2] the test system is HL-60. Kind of assay: Cytotoxicity against human HL-60 cells after 72 hrs by MTT assay. The note with it: HL-60, 72 h.
In assay [3] the test system is KB. Kind of assay: Cytotoxicity against human KB cells after 72 hrs by MTT assay.
Assay [4] is described as follows: Cytotoxicity against human BEL-7404 cells after 72 hrs by MTT assay. The note with it: BEL-7404, 72 h.

Turning to `COC(=O)[C@H]1[C@H](CO)Cc2cc(OC)c(OC)c(OC)c2[C@@H]1c1ccc(O)c(OC)c1` (racemic), in assay [1], the IC50 came to 14.5 µM.
For `COc1cc([C@@H]2c3cc4c(cc3[C@@H](O[C@@H]3O[C@@H]5CO[C@@H](C)O[C@H]5[C@H](O)[C@H]3O)[C@H]3COC(=O)[C@H]23)OCO4)cc(OC)c1O` [ETOPOSIDE], the IC50 in assay [2] was 10.5 µM.
The molecule `COC(=O)[C@H]1[C@H](CO)Cc2cc(OC)c(OC)c(OC)c2[C@@H]1c1ccc(OC/C=C(\C)CCC=C(C)C)c(OC)c1` (racemic) returned an IC50 in assay [2] of 4.54 µM.
With `COc1cc2c(cc1OC)[C@H](c1ccc(OC)c(OC/C=C(\C)CC/C=C(\C)CCC=C(C)C)c1)[C@H]1C(=O)OC[C@@H]1C2` (racemic), the values for the 50% inhibitory concentration (IC50) in assay [3] and in assay [4] were 3.76 µM and 5.63 µM, respectively.
For `COc1cc2c(cc1OC)[C@H](c1ccc(OCc3ccccc3)c(OC)c1)[C@H]1C(=O)OC[C@@H]1C2` (racemic), in that order: 2.65 µM and 14.8 µM.

Usually IC50 stands for the concentration that inhibits the measured activity by half. A high value points to lower potency.
